According to ChEMBL document CHEMBL1127100, “Structure-activity relationships of a series of glycine antagonists related to 5,7-dichlorokynurenic acid and 3-(2-carboxy-6-chloroindol-3-yl)acetic acid” (Bioorg Med Chem Lett, 1993):

Experiments:
[1] = molecular target: Glutamate NMDA receptor; assay: Tested for the ability to inhibit [3H]MK-801 binding to NMDA receptor of rat cortical membranes in the presence of glutamate (1 uM)
[2] = molecular target: Glutamate receptor ionotropic, NMDA 1 (Rattus norvegicus, UniProt P35439); assay: Tested for the ability to displace [3H]glycine, by greater than 50%, from NMDA receptor of rat cortical membranes at a dose of 10 uM

| Compound | IC50 [1] | Ki [2] |
| --- | --- | --- |
| O=C(O)Cc1cc2ccccc2nc1C(=O)O | > 100 µM | > 100 µM |
| O=C(O)CCc1c(C(=O)O)nc2cc(Cl)cc(Cl)c2c1O | 103 µM | 7.04 µM |
| O=C(O)CCc1c(C(=O)O)[nH]c2cc(Cl)cc(Cl)c12 | – | 0.14 µM |
| O=C(O)Cc1c(C(=O)O)nc2ccccc2c1O | 83.4 µM | 14.8 µM |

The remaining lines, values ahead:

| IC50 [1] | Ki [2] | Compound |
| --- | --- | --- |
| 0.86 µM | – | O=C(O)c1cc(O)c2c(Cl)cc(Cl)cc2n1 |
| 5.91 µM | 0.98 µM | O=C(O)c1cc2c(Cl)cc(Cl)cc2[nH]1 |
| 3.33 µM | 0.34 µM | O=C(O)Cc1c(C(=O)O)[nH]c2cc(Cl)cc(Cl)c12 |
| 3.54 µM | 0.65 µM | O=C(O)Cc1c(C(=O)O)nc2cc(Cl)cc(Cl)c2c1O |
